{"source": "patent US3932382A", "about": "“Dideoxybutirosin derivative” (Sankyo Company Limited, priority 1973, dated 1976)", "key": {"[1]": {"system": "E. coli 704-1", "experiment": "Protecting Effects in Mice (Table II)", "assay_type": "in vivo", "settings": "2 doses subcutaneously at 0 and 4 hours post-infection", "description": "(§1) Protecting Effects of 3',4'-Dideoxybutirosin A in Mice\nED50 : mg./kg./dose (2 doses subcutaneously at 0 and […]"}, "[2]": {"system": "E. coli 665", "experiment": "Protecting Effects in Mice (Table II)", "assay_type": "in vivo", "settings": "2 doses subcutaneously at 0 and 4 hours post-infection, butirosin-resistant strain", "description": "as §1\nED50 : mg./kg./dose (2 doses subcutaneously at 0 and\n*Butirosin-resistant strain"}, "[3]": {"system": "Bacillus subtilis P C I-219", "experiment": "Minimum Inhibitory Concentration (Table I)", "assay_type": "cell-based", "settings": "PCI219, Heart-Infusion Agar", "description": "(§2) Minimum Inhibitory Concentration of 3',4'-\n(§3) Medium : Heart-Infusion Agar"}, "[4]": {"system": "Escherichia coli N I H J", "experiment": "Minimum Inhibitory Concentration (Table I)", "assay_type": "cell-based", "settings": "Heart-Infusion Agar", "description": "as §2, §3"}, "[5]": {"system": "Klebsiella 806", "experiment": "Minimum Inhibitory Concentration (Table I)", "assay_type": "cell-based", "settings": "Heart-Infusion Agar", "description": "as §2, §3"}, "[6]": {"system": "Proteus vulgaris 025", "experiment": "Minimum Inhibitory Concentration (Table I)", "assay_type": "cell-based", "settings": "Heart-Infusion Agar", "description": "as §2, §3"}, "[7]": {"system": "Pseudomonas aeruginosa Scr.", "experiment": "Minimum Inhibitory Concentration (Table I)", "assay_type": "cell-based", "settings": "Heart-Infusion Agar", "description": "as §2, §3"}, "[8]": {"system": "Salmonela enteritidis", "experiment": "Minimum Inhibitory Concentration (Table I)", "assay_type": "cell-based", "settings": "Heart-Infusion Agar", "description": "as §2, §3"}, "[9]": {"system": "Shigella flexneri 2a", "experiment": "Minimum Inhibitory Concentration (Table I)", "assay_type": "cell-based", "settings": "Heart-Infusion Agar", "description": "as §2, §3"}, "[10]": {"system": "Staph. aureus 56", "experiment": "Minimum Inhibitory Concentration (Table I)", "assay_type": "cell-based", "settings": "Staphylococcus aureus, Heart-Infusion Agar", "description": "as §2, §3"}, "[11]": {"system": "Staphylococcus aureus 209P", "experiment": "Minimum Inhibitory Concentration (Table I)", "assay_type": "cell-based", "settings": "Heart-Infusion Agar", "description": "as §2, §3"}, "[12]": {"system": "E. coli 620", "experiment": "Minimum Inhibitory Concentration (Table I)", "assay_type": "cell-based", "settings": "Escherichia coli, Heart-Infusion Agar, butirosin-resistant bacteria", "description": "as §2\n(§4) Mark *means butirosin-resistant bacteria\nas §3"}, "[13]": {"system": "E. coli 665", "experiment": "Minimum Inhibitory Concentration (Table I)", "assay_type": "cell-based", "settings": "Escherichia coli, Heart-Infusion Agar, butirosin-resistant bacteria", "description": "as §2, §4, §3"}, "[14]": {"system": "Pseudomonas aeruginosa 1055", "experiment": "Minimum Inhibitory Concentration (Table I)", "assay_type": "cell-based", "settings": "Heart-Infusion Agar, butirosin-resistant bacteria", "description": "as §2, §4, §3"}, "[15]": {"system": "E. coli clinical isolates (125 strains)", "experiment": "Susceptibility of Clinical Isolates (Table III)", "assay_type": "cell-based", "settings": "of 125 strains", "description": "(§5) Susceptibility of Clinical Isolates to 3',4'-"}, "[16]": {"system": "P. aeruginosa clinical isolates (102 strains)", "experiment": "Susceptibility of Clinical Isolates (Table III)", "assay_type": "cell-based", "settings": "of 102 strains", "description": "as §5"}, "[17]": {"settings": "for Death incidence: mouse, in vivo", "description": "Acute Toxicities of 3',4'-Dideoxybutirosin A\nMice : ddY strain, male, 20 ± 0.2 g."}, "[18]": {"system": "gram-positive and -negative bacteria", "experiment": "Antibacterial activity, general statement", "assay_type": "cell-based"}, "[19]": {"system": "butirosin-resistant bacteria", "experiment": "Antibacterial activity against butirosin-resistant bacteria, statement", "assay_type": "cell-based", "description": "as §2, §4, §3"}, "[20]": {"system": "butirosin sensitive strains", "experiment": "Antibacterial activity against butirosin sensitive strains, statement", "assay_type": "cell-based", "description": "as §2, §3"}}, "note": "Like-named read-outs stand apart in the source and are kept apart here.", "data": [{"compound": "Butirosin [reference compound]", "values": [{"measurement": "ED50", "setting": "[1]", "value": 2.47, "unit": "mg./kg./dose"}, {"measurement": "ED50", "setting": "[2]", "value": 146.3, "unit": "mg./kg./dose"}]}, {"compound": "NCC[C@H](O)C(=O)N[C@@H]1C[C@H](N)[C@@H](O[C@H]2O[C@H](CN)CC[C@H]2N)[C@H](O[C@@H]2O[C@H](CO)[C@H](O)[C@H]2O)[C@H]1O", "note": "[3',4'-Dideoxybutirosin A]", "values": [{"measurement": "MIC", "setting": "[3]", "value": 0.1, "unit": "µg/mL"}, {"measurement": "MIC", "setting": "[4]", "value": 0.4, "unit": "µg/mL"}, {"measurement": "MIC", "setting": "[5]", "value": 0.8, "unit": "µg/mL"}, {"measurement": "MIC", "setting": "[6]", "value": 0.8, "unit": "µg/mL"}, {"measurement": "MIC", "setting": "[7]", "value": 3.1, "unit": "µg/mL"}, {"measurement": "MIC", "setting": "[8]", "value": 1.5, "unit": "µg/mL"}, {"measurement": "MIC", "setting": "[9]", "value": 3.1, "unit": "µg/mL"}, {"measurement": "MIC", "setting": "[10]", "value": 0.4, "unit": "µg/mL"}, {"measurement": "MIC", "setting": "[11]", "value": 0.1, "unit": "µg/mL"}, {"measurement": "MIC", "setting": "[12]", "value": 3.1, "unit": "µg/mL"}, {"measurement": "MIC", "setting": "[13]", "value": 3.1, "unit": "µg/mL"}, {"measurement": "MIC", "setting": "[14]", "value": 6.2, "unit": "µg/mL"}, {"measurement": "ED50", "setting": "[1]; Escherichia coli, 7041, sc, read-out: ED50", "value": 2.3, "unit": "mg/kg"}, {"measurement": "ED50", "setting": "[2]; Escherichia coli, 665, sc, read-out: ED50", "value": 2.43, "unit": "mg/kg"}, {"measurement": "number of strains with MIC 0.8 mcg./ml.", "setting": "[15]; MIC 0.8 mcg./ml.", "value": 0, "unit": "strains"}, {"measurement": "number of strains with MIC 1.5 mcg./ml.", "setting": "[15]; MIC 1.5 mcg./ml.", "value": 0, "unit": "strains"}, {"measurement": "number of strains with MIC 3.1 mcg./ml.", "setting": "[15]; MIC 3.1 mcg./ml.", "value": 0, "unit": "strains"}, {"measurement": "number of strains with MIC 6.2 mcg./ml.", "setting": "[15]; MIC 6.2 mcg./ml.", "value": 6, "unit": "strains"}, {"measurement": "number of strains with MIC 12.5 mcg./ml.", "setting": "[15]; MIC 12.5 mcg./ml.", "value": 100, "unit": "strains"}, {"measurement": "number of strains with MIC 25 mcg./ml.", "setting": "[15]; MIC 25 mcg./ml.", "value": 15, "unit": "strains"}, {"measurement": "number of strains with MIC 50 mcg./ml.", "setting": "[15]; MIC 50 mcg./ml.", "value": 2, "unit": "strains"}, {"measurement": "number of strains with MIC 100 mcg./ml.", "setting": "[15]; MIC 100 mcg./ml.", "value": 2, "unit": "strains"}, {"measurement": "number of strains with MIC 200 mcg./ml.", "setting": "[15]; MIC 200 mcg./ml.", "value": 0, "unit": "strains"}, {"measurement": "number of strains with MIC >200 mcg./ml.", "setting": "[15]; MIC >200 mcg./ml.", "value": 0, "unit": "strains"}, {"measurement": "number of strains with MIC 0.8 mcg./ml.", "setting": "[16]; MIC 0.8 mcg./ml.", "value": 1, "unit": "strains"}, {"measurement": "number of strains with MIC 1.5 mcg./ml.", "setting": "[16]; MIC 1.5 mcg./ml.", "value": 3, "unit": "strains"}, {"measurement": "number of strains with MIC 3.1 mcg./ml.", "setting": "[16]; MIC 3.1 mcg./ml.", "value": 5, "unit": "strains"}, {"measurement": "number of strains with MIC 6.2 mcg./ml.", "setting": "[16]; MIC 6.2 mcg./ml.", "value": 20, "unit": "strains"}, {"measurement": "number of strains with MIC 12.5 mcg./ml.", "setting": "[16]; MIC 12.5 mcg./ml.", "value": 41, "unit": "strains"}, {"measurement": "number of strains with MIC 25 mcg./ml.", "setting": "[16]; MIC 25 mcg./ml.", "value": 21, "unit": "strains"}, {"measurement": "number of strains with MIC 50 mcg./ml.", "setting": "[16]; MIC 50 mcg./ml.", "value": 3, "unit": "strains"}, {"measurement": "number of strains with MIC 100 mcg./ml.", "setting": "[16]; MIC 100 mcg./ml.", "value": 5, "unit": "strains"}, {"measurement": "number of strains with MIC 200 mcg./ml.", "setting": "[16]; MIC 200 mcg./ml.", "value": 2, "unit": "strains"}, {"measurement": "number of strains with MIC >200 mcg./ml.", "setting": "[16]; MIC >200 mcg./ml.", "value": 1, "unit": "strains"}, {"measurement": "toxicity", "setting": "[17]; as compared with the prior similar aminoglycoside antibiotics", "value": "considerably low toxicity"}, {"measurement": "Death incidence", "setting": "[17]; iv, 250 mg/kg", "value": "0/3"}, {"measurement": "Death incidence", "setting": "[17]; iv, 500 mg/kg", "value": "1/2"}, {"measurement": "Death incidence", "setting": "[17]; sc, 2000 mg/kg", "value": "0/3"}, {"measurement": "antibacterial activities", "setting": "[18]", "value": "broad antibacterial activities"}, {"measurement": "activity against butirosin-resistant bacteria", "setting": "[19]", "value": "an activity against butirosin -resistant bacteria"}, {"measurement": "activity against butirosin-resistant bacteria", "setting": "[19]; listed as 3', 4'-dideoxybutirosin A (I)", "value": "outstanding activities"}, {"measurement": "activities against butirosin sensitive strains", "setting": "[20]", "value": "outstanding activities"}]}]}
